Reference: patent US4994473A, “Pyridyl containing insecticides” (ICI Americas Inc., priority 1988, dated 1991)

How the values were obtained:
[1] = system: Musca domestica; experiment: Housefly contact test, mortality after 48 hours; type: in vivo, Housefly Musca domestica; settings: μg of the test compound per 25 female flies
Procedure: (§1) The compounds in Table I above were tested for insecticidal activity using the following testing procedures. LC50 values, based on the results of these tests and calculated according to dosage-mortality curves, are expressed in Table II.
The test compound was diluted in acetone and aliquots pipetted onto the bottom of aluminum dishes. To ensure even spreading of the chemical on the bottom of the dishes, 1 ml of acetone containing 0.01% peanut oil was also added to each dish. After all solvents had evaporated, the dishes were placed in circular cardboard cages containing 25 female houseflies, 1-2 days old. The cages were covered on the bottom with cellophane and on the top with tulle netting, and each contained a sugar-water saturated cotton plug for maintenance of the flies. Mortality was recorded after 48 hours. Test levels ranged from 100 μg/25 female houseflies downward. The LC-50 value is expressed below in Table II under the heading "HF", in terms of μg of the test compound per 25 female flies.

[2] = system: Aphis fabae; experiment: Black bean aphid spray test on nasturtium plants, mortality after 48 hours; type: in vivo, Black Bean Aphid Aphis fabae (Scop.); settings: mixed ages, percent of test compound in sprayed solution
Procedure: as §1
Black Bean Aphid Aphis fabae (Scop.)
Nasturtium plants (Tropaeolum sp.) approximately 5 cm tall, were transplanted into sandy loam soil in small cups and infested with 25-50 black bean aphids of mixed ages. Twenty-four hours later they were sprayed to the point of runoff with 50--50 acetone-water solutions of the test compound. Treated plants were held in the greenhouse and mortality was recorded after 48 hours. Test concentrations ranged from 0.05% downward. The LC-50 value is expressed below in Table II under the heading "BA" in terms of percent of the test compound in the sprayed solution.

[3] = system: Heliothis virescens; experiment: Tobacco budworm egg dip test; type: in vivo, Tobacco Budworm Heliothis virescens (Fabricius); settings: 2-day old eggs (TBW-E), percent of test compound in solution
Procedure: as §1
Tobacco Budworm Heliothis virescens (Fabricius)
Eggs: Paper towel patches of 2-day old eggs of the tobacco budworm were dipped in acetone solutions of the test compound and placed in petri dishes containing a portion of larval rearing medium. Treated eggs were maintained at 78° F. and mortality was recorded after all control eggs had hatched and the young larvae were feeding on the media. Test concentrations ranged from 0.1% downward. The LC-50 value is expressed below in Table II under the heading "TBW-E" in terms of percent of the test compound in the solution.

[4] = system: Trichoplusia ni; experiment: Cabbage looper larvae leaf-dip test; type: in vivo, Cabbage Looper Trichoplusia ni (Hubner); settings: second instar larvae, percent of test compound in solution, 3-5 days
Procedure: as §1
Cabbage Looper Trichoplusia ni (Hubner)
The test compound was diluted in a 50--50 acetone-water solution Cotyledons of hyzini squash (Calabacita abobrinha), approximately 1×1.5 inches, were immersed in the test solutions for 2-3 seconds and placed on a wire screen to dry. The dried leaves were p1aced in petri dishes containing a moistened piece of filter paper and infested with 5 secondinstar cabbage looper larvae. The dishes were placed in a high humidity chamber. Mortality of the larvae was recorded 3-5 days later. Test concentrations ranged from 0.1% downward. The LC-50 value is expressed below in Table II under the heading "CL" in terms of percent of the test compound in solution.

[5] = system: Tetranychus urticae; experiment: Two-spotted mite acaricidal test on pinto bean plants; type: in vivo, two-spotted mite Tetranychus urticae (Koch); settings: percent concentration in solution, 5-7 days; for LC50 2-SM A: adults; for LC50 2-SM E: eggs
Source text: Acaricidal Evaluation Test
The two-spotted mite (2SM) [Tetranychus urticae (Koch)]was employed in tests for miticides. The test procedure was as follows:
Pinto bean plants (Phaseolus sp.) approximately 10 cm tall, were transplanted into sandy loam soil in small cups and thoroughly infested with two-spotted mites of mixed ages and sexes. Twenty-four hours later the infested plants were inverted and dipped for 2-3 seconds in 50--50 acetone-water solutions of the test compound. Treated plants were held in the greenhouse, and 5-7 days later mortality was determined for both adult mites and the nymphs hatching from eggs which were on the plants at the time of treatment. Test concentrations ranged from 0.05% downward. The LC-50 value is expressed below in Table II under the headings "2SM-A" (i.e., adults) and "2SM-E" (i.e. eggs) in terms of percent concentration of the test compound in the solution.

[6] = system: Diabrotica undecimpunctata undecimpunctata; experiment: Western spotted cucumber beetle larvae soil test; type: in vivo; settings: Diabrotica eggs/larvae; ppm of the test compound in the soil
Procedure: as §1
Western Spotted Cucumber Beetle Larvae Diabrotica undecimpunctata undecimpunctata (Mannherheim)
Ten grams of moist potting soil was placed in a plastic cup. The test compound was dissolved in acetone. A 0.05 ml aliquot of the test sample, diluted to the desired concentration, was added to the soil. The cup was capped and the soil was mixed on a vortex mixer for approximately 15 seconds. An indentation was made on the surface of the soil and approximately 50 Diabrotica eggs were added. The eggs were covered with soil and maintained at room temperature (approximately 70° F. or 21° C.). Four days later a section of Romaine lettuce (Latuca sativa) leaf was placed in the treated cups. One week later the cups were examined for live larvae. Test concentrations ranged from 25 ppm downward. The LC-50 value is expressed below in Table II under the heading "Diabrotica" in terms of ppm of the test compound in the soil.

Row | SMILES | LC50 HF [1] [µg] | LC50 BA [2] [%] | LC50 TBW [3] [%] | LC50 CL [4] [%] | LC50 2-SM A [5] [%] | LC50 2-SM E [5] [%] | LC50 Diabrotica [6] [ppm]
1 | CC(C)C(=Nc1cncc(Br)c1)OCc1cccc(Oc2ccccc2)c1 [Compound 13] | 7 | > 0.05 | > 0.1 | 0.015 | – | – | –
2 | CC(C)C(=Nc1cnc2ccccc2c1)OCc1cccc(Oc2ccccc2)c1 [Compound 17] | 36 | – | > 0.1 | 0.05 | > 0.05 | > 0.05 | > 25
3 | CC(C)C(=Nc1ccc(Br)nc1)OCc1cccc(Oc2ccccc2)c1 [Compound 11] | 7 | 0.01 | > 0.1 | 0.01 | > 0.05 | > 0.05 | –
4 | CC(C)C(=Nc1ccc(Cl)nc1Cl)OCc1cccc(Oc2ccccc2)c1 [Compound 2] | 18 | 0.003 | 0.075 | 0.0027 | > 0.05 | > 0.05 | > 25
5 | CC(C)C(=Nc1ccc(OCC(F)(F)F)nc1)OCc1ccc(F)c(Oc2ccccc2)c1 [Compound 42] | < 100 | 0.0004 | 0.017 | 0.000075 | 0.006 | 0.006 | > 25
6 | CC(C)C(=Nc1ccc(Cl)nc1)OCc1ccc(F)c(Oc2ccc(F)cc2)c1 [Compound 31] | 7.5 | – | 0.45 | 0.0016 | > 0.05 | > 0.05 | > 25
7 | CC(C)C(=Nc1ccc(Cl)nc1)NCc1cccc(Oc2ccccc2)c1 [Compound 23] | > 100 | – | > 0.1 | 0.1 | > 0.05 | > 0.05 | > 25
8 | CC(C)C(=Nc1ccc2ncoc2c1)OCc1cccc(Oc2ccccc2)c1 [Compound 18] | 8 | – | > 0.1 | 0.009 | > 0.05 | > 0.05 | > 25
9 | CC(C)C(=Nc1ccc2ncsc2c1)OCc1cccc(Oc2ccccc2)c1 [Compound 20] | 6 | – | – | 0.009 | – | – | –
10 | CC(C)C(=Nc1ccc2nc(C(C)C)sc2c1)OCc1cccc(Oc2ccccc2)c1 [Compound 21] | > 100 | – | > 0.1 | 0.05 | > 0.05 | > 0.05 | > 25
11 | CC(C)C(=Nc1cc(C(F)(F)F)ccn1)OCc1cccc(Oc2ccccc2)c1 [Compound 34] | > 100 | – | > 0.1 | 0.018 | > 0.05 | > 0.05 | > 25
12 | CC(C)C(=Nc1cncc(C(F)(F)F)c1)OCc1cccc(Oc2ccc(F)cc2)c1 [Compound 35] | 23 | – | 0.1 | 0.001 | > 0.05 | > 0.05 | > 25
13 | CCOc1ccc(N=C(OCc2cccc(Oc3ccccc3)c2)C(C)C)cn1 [Compound 41] | < 100 | > 0.05 | > 0.1 | – | > 0.05 | > 0.05 | > 25
14 | Cc1ccc(N=C(OCc2cccc(Oc3ccccc3)c2)C(C)C)cn1 [Compound 10] | 25 | 0.05 | > 0.1 | > 0.1 | > 0.05 | > 0.05 | –
15 | CC(C)C(=Nc1cc(C(F)(F)F)ccn1)OCc1cccc(Oc2ccc(F)cc2)c1 [Compound 36] | > 100 | – | > 0.1 | 0.015 | > 0.05 | > 0.05 | > 25
16 | CC(C)C(=Nc1ccc(Cl)nc1)OCc1ccc(F)c(Oc2ccc(Cl)cc2)c1 [Compound 32] | 22 | – | 0.03 | 0.00075 | > 0.05 | 0.05 | > 25
17 | CC(C)C(=Nc1ccc2ncccc2c1)OCc1cccc(Oc2ccccc2)c1 [Compound 16] | 59 | – | > 0.1 | 0.025 | > 0.05 | > 0.05 | > 25
18 | Cc1nc2ccc(N=C(OCc3cccc(Oc4ccccc4)c3)C(C)C)cc2o1 [Compound 25] | 38 | – | > 0.1 | 0.0075 | > 0.05 | > 0.05 | > 25
19 | CC(C)C(=Nc1ccc(Cl)nc1)OCc1cccc(Oc2ccc(F)cc2)c1 [Compound 22] | 9 | – | 0.05 | 0.001 | > 0.05 | > 0.05 | > 25
20 | Cc1nc2cc(N=C(OCc3cccc(Oc4ccccc4)c3)C(C)C)ccc2o1 [Compound 24] | > 100 | – | > 0.1 | 0.0075 | > 0.05 | > 0.05 | > 25
21 | CCCCc1nc2ccc(N=C(OCc3cccc(Oc4ccccc4)c3)C(C)C)cc2o1 [Compound 26] | > 100 | 0.05 | > 0.1 | 0.004 | > 0.05 | > 0.05 | –
22 | CC(C)C(=Nc1ccc2nc(C(C)C)oc2c1)OCc1cccc(Oc2ccccc2)c1 [Compound 27] | > 100 | > 0.05 | > 0.1 | 0.0035 | > 0.05 | > 0.05 | –
23 | CC(C)C(=Nc1ccc2ocnc2c1)OCc1cccc(Oc2ccccc2)c1 [Compound 19] | 10 | – | > 0.1 | 0.04 | > 0.05 | > 0.05 | > 25
24 | CC(C)(Cl)C(=Nc1ccc(Br)nc1)OCc1cccc(Oc2ccccc2)c1 [Compound 12] | 12 | 0.05 | > 0.1 | 0.02 | > 0.05 | > 0.05 | –
